# Assay results as given in article PMC7007966 (Journal of medicinal chemistry, 2019).
# Entries after “also recorded” stand apart in the source; their conditions may differ.
# Columns and labels:
# [1] = target: T1, rat DOR (C6-DOR membranes) (Rattus norvegicus, UniProt P33533); settings: [35S]-GTPγS stimulation relative to DPDPE; cited from earlier work
# [2] = target: T1, rat DOR (C6-DOR membranes); test: [35S]-GTPγS binding assay; assay type: biochemical; settings: for DOR efficacy (in words): [35S]-GTPγS stimulation relative to DPDPE at 10 μM
# [3] = target: T2, rat MOR (C6-MOR membranes) (Rattus norvegicus, UniProt P33535); test: [35S]-GTPγS binding assay; assay type: biochemical; settings: [35S]-GTPγS stimulation relative to DAMGO
# [4] = target: T2, rat MOR (C6-MOR membranes); test: Radioligand competition binding, [3H]-diprenorphine displacement; settings: ratio of binding affinities; 1A-D, 2B, 2D previously reported compounds
# [5] = target: T3, human KOR (CHO-KOR membranes) (Homo sapiens, UniProt P41145); test: [35S]-GTPγS binding assay; assay type: biochemical; settings: [35S]-GTPγS stimulation relative to U69,593 at 10 μM
# [6] = target: T3, human KOR (CHO-KOR membranes); test: Radioligand competition binding, [3H]-diprenorphine displacement; settings: competitive displacement of [3H]-diprenorphine, membrane preparations
Structure (SMILES),DOR efficacy (in words) [2],MOR efficacy (in words) [3],also measured
CC(=O)N1CC[C@@H](NC(=O)[C@@H](N)Cc2c(C)cc(O)cc2C)c2cc(Cc3ccc4ccccc4c3)ccc21.O=C(O)C(F)(F)F [Compound 2B],–,–,"DOR efficacy (in words), previously reported compounds [1]: DOR antagonist profile"
Cc1cc(O)cc(C)c1C[C@H](N)C(=O)N[C@@H]1CCNc2ccc(Cc3cc4ccccc4o3)cc21.O=C(O)C(F)(F)F [Compound 1F],DOR antagonists,MOR agonists,–
Cc1cc(O)cc(C)c1C[C@H](N)C(=O)N[C@@H]1CCN(C(=O)C2CC2)c2ccc(Cc3ccccc3)cc21.O=C(O)C(F)(F)F [Compound 3A],significant efficacy at DOR,–,–
Cc1cc(O)cc(C)c1C[C@H](N)C(=O)N[C@@H]1CCN(S(C)(=O)=O)c2ccc(Cc3cc4ccccc4o3)cc21.O=C(O)C(F)(F)F [Compound 4F],DOR antagonists,MOR agonists,–
Cc1cc(O)cc(C)c1C[C@H](N)C(=O)N[C@@H]1CCN(C(=O)c2ccccc2)c2ccc(Cc3ccc4c(c3)OCCO4)cc21.O=C(O)C(F)(F)F [Compound 5E],–,no significant MOR efficacy,–
Cc1cc(O)cc(C)c1C[C@H](N)C(=O)N[C@@H]1CCN(C(=O)C2CC2)c2ccc(Cc3cnc4ccccc4c3)cc21.O=C(O)C(F)(F)F [Compound 3C],significant efficacy at DOR,–,DOR agonist potency (in words) ([2]; [35S]-GTPγS stimulation): subnanomolar
CC(=O)N1CC[C@@H](NC(=O)[C@@H](N)Cc2c(C)cc(O)cc2C)c2cc(Cc3cnc4ccccc4c3)ccc21.O=C(O)C(F)(F)F [Compound 2C],significant efficacy at DOR,–,–
Cc1cc(O)cc(C)c1C[C@H](N)C(=O)N[C@@H]1CCN(C(=O)c2ccccc2)c2ccc(Cc3cc4ccccc4o3)cc21.O=C(O)C(F)(F)F [Compound 5F],DOR antagonist,MOR partial agonist,–
Cc1cc(O)cc(C)c1C[C@H](N)C(=O)N[C@@H]1CCNc2ccc(Cc3ccc4ccccc4c3)cc21.O=C(O)C(F)(F)F [Compound 1B],–,–,selectivity for MOR over DOR (DOR Ki/MOR Ki) [4]: 100 fold
Cc1cc(O)cc(C)c1C[C@H](N)C(=O)N[C@@H]1CCN(C(=O)C2CC2)c2ccc(Cc3ccc4ccccc4c3)cc21.O=C(O)C(F)(F)F [Compound 3B],significant efficacy at DOR,–,–
Cc1cc(O)cc(C)c1C[C@H](N)C(=O)N[C@@H]1CCN(S(C)(=O)=O)c2ccc(Cc3ccccc3)cc21.O=C(O)C(F)(F)F [Compound 4A],partial DOR agonism,–,–
Cc1cc(O)cc(C)c1C[C@H](N)C(=O)N[C@@H]1CCN(C(=O)c2ccccc2)c2ccc(Cc3ccc4ccccc4c3)cc21.O=C(O)C(F)(F)F [Compound 5B],–,partial MOR efficacy,–
CC(=O)N1CC[C@@H](NC(=O)[C@@H](N)Cc2c(C)cc(O)cc2C)c2cc(Cc3ccccc3)ccc21.O=C(O)C(F)(F)F [Compound 2A],–,–,"DOR efficacy (in words), previously reported compounds [1]: significant efficacy at DOR"
Cc1cc(O)cc(C)c1C[C@H](N)C(=O)N[C@@H]1CCN(C(=O)C2CC2)c2ccc(Cc3cc4ccccc4o3)cc21.O=C(O)C(F)(F)F [Compound 3F],significant efficacy at DOR; also recorded: DOR partial agonists,MOR agonists,–
Cc1cc(O)cc(C)c1C[C@H](N)C(=O)N[C@@H]1CCN(S(C)(=O)=O)c2ccc(CN3CCc4ccccc4C3)cc21.O=C(O)C(F)(F)F [Compound 4D],–,–,KOR efficacy (in words) [5]: relatively high KOR affinity and efficacy; KOR affinity (in words) [6]: relatively high KOR affinity
Cc1cc(O)cc(C)c1C[C@H](N)C(=O)N[C@@H]1CCNc2ccc(Cc3ccccc3)cc21.O=C(O)C(F)(F)F [Compound 1A],–,–,"DOR efficacy (in words), previously reported compounds [1]: low DOR agonist activity"
CC(=O)N1CC[C@@H](NC(=O)[C@@H](N)Cc2c(C)cc(O)cc2C)c2cc(Cc3cc4ccccc4o3)ccc21.O=C(O)C(F)(F)F [Compound 2F],significant efficacy at DOR; also recorded: DOR partial agonists,MOR agonists,–
Cc1cc(O)cc(C)c1C[C@H](N)C(=O)N[C@@H]1CCN(C(=O)c2ccccc2)c2ccc(Cc3cnc4ccccc4c3)cc21.O=C(O)C(F)(F)F [Compound 5C],–,partial MOR efficacy,–
CC(=O)N1CC[C@@H](NC(=O)[C@@H](N)Cc2c(C)cc(O)cc2C)c2cc(CN3CCc4ccccc4C3)ccc21.O=C(O)C(F)(F)F [Compound 2D],–,–,KOR efficacy (in words) [5]: relatively high KOR affinity and efficacy; KOR affinity (in words) [6]: relatively high KOR affinity
